# Assay results as given in US11000033B2, “Ketone or oxime compound, and herbicide” (NISSAN CHEMICAL CORPORATION, priority 2014, dated 2021).
# What was measured:
# [1] = test system: directly sowed rice plant; test: Test Example 3: effect on crop by foliage application, Wagner pot (symbol b); type: in vivo; details: application herbicide amount 320 g/ha
# Summary of the method: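 Wagner pot (1/10000 are), alluvial soil, submerged 0.1–0.5 cm; sown E. crus-galli var. crus-galli, L. chinensis, C. difformis, rice; greenhouse 25–30 °C.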
# Cyperus difformis = test: Test Example 3: herbicidal effect by foliage application, Wagner pot (symbol E); type: in vivo; details: application herbicide amount 320 g/ha
# Summary of the method: (§1)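 In a shallow-flooded alluvial soil system held at 25–30 °C, plants including rice grew for 14 days and were then sprayed over the foliage with emulsion diluted to a fixed herbicide amount. Visual rating followed at 3 weeks.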
# beet = test: Test Example 5: effect on crop by foliage application, plastic box (symbol f); type: in vivo; details: 320 g/ha, 3 weeks after application
# Summary of the method: (§2)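 Foliage-application test plants come from spot sowing in sterilized diluvial soil under a soil layer of about 1.5 cm, grown at 25° C. to 30° C. in a greenhouse.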
# Veronica persica = test: Test Example 5: herbicidal effect by foliage application, plastic box (symbol R); type: in vivo; details: 320 g/ha, 3 weeks after application
# Summary of the method: (§3)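 Post-emergence spray; diluvial soil (sterilized), ~1.5 cm seed cover; greenhouse 25–30° C; 14-day-old plants; water-diluted emulsion at predetermined dose; visual score at 3 wk post-treatment.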
# Lolium multiflorum Lam. = test: Test Example 5: herbicidal effect by foliage application, plastic box (symbol K); type: in vivo; details: 320 g/ha, 3 weeks after application
# Summary of the method: as §3
# Amaranthus retroflexus = test: Test Example 5: herbicidal effect by foliage application, plastic box (symbol N); type: in vivo; details: 320 g/ha, 3 weeks after application
# Summary of the method: as §3
# [2] = test system: Echinochloa crus-galli var. crus-galli; test: Test Example 5: herbicidal effect by foliage application, plastic box (symbol H); type: in vivo; details: 320 g/ha, 3 weeks after application
# Summary of the method: as §3
# soybean = test: Test Example 5: effect on crop by foliage application, plastic box (symbol d); type: in vivo; details: 320 g/ha, 3 weeks after application
# Summary of the method: as §2
# Apera spica-venti = test: Test Example 5: herbicidal effect by foliage application, plastic box (symbol L); type: in vivo; details: 320 g/ha, 3 weeks after application
# Summary of the method: as §3
# wheat = test: Test Example 5: effect on crop by foliage application, plastic box (symbol e); type: in vivo; details: 320 g/ha, 3 weeks after application
# Summary of the method: as §2
# Stellaria media = test: Test Example 5: herbicidal effect by foliage application, plastic box (symbol P); type: in vivo; details: 320 g/ha, 3 weeks after application
# Summary of the method: as §3
# Galium spurium = test: Test Example 5: herbicidal effect by foliage application, plastic box (symbol Q); type: in vivo; details: 320 g/ha, 3 weeks after application
# Summary of the method: as §3
# rice plant = test: Test Example 5: effect on crop by foliage application, plastic box (symbol b); type: in vivo; details: 320 g/ha, 3 weeks after application
# Summary of the method: as §2
# corn = test: Test Example 5: effect on crop by foliage application, plastic box (symbol c); type: in vivo; details: 320 g/ha, 3 weeks after application
# Summary of the method: as §2
# Avena fatua = test: Test Example 5: herbicidal effect by foliage application, plastic box (symbol I); type: in vivo; details: 320 g/ha, 3 weeks after application
# Summary of the method: as §3
# Digitaria ciliaris = test: Test Example 5: herbicidal effect by foliage application, plastic box (symbol F); type: in vivo; details: 320 g/ha, 3 weeks after application
# Summary of the method: as §3
# Abutilon theophrasti = test: Test Example 5: herbicidal effect by foliage application, plastic box (symbol M); type: in vivo; details: 320 g/ha, 3 weeks after application
# Summary of the method: as §3
# Setaria viridis = test: Test Example 5: herbicidal effect by foliage application, plastic box (symbol G); type: in vivo; details: 320 g/ha, 3 weeks after application
# Summary of the method: as §3
# rapeseed = test: Test Example 5: effect on crop by foliage application, plastic box (symbol g); type: in vivo; details: 320 g/ha, 3 weeks after application
# Summary of the method: as §2
# Chenopodium album = test: Test Example 5: herbicidal effect by foliage application, plastic box (symbol O); type: in vivo; details: 320 g/ha, 3 weeks after application
# Summary of the method: as §3
# Alopecurus myosuroides = test: Test Example 5: herbicidal effect by foliage application, plastic box (symbol J); type: in vivo; details: 320 g/ha, 3 weeks after application
# Summary of the method: as §3
# [3] = test system: Echinochloa crus-galli var. crus-galli; test: Test Example 3: herbicidal effect by foliage application, Wagner pot (symbol H); type: in vivo; details: application herbicide amount 320 g/ha
# Summary of the method: as §1
# Leptochloa chinensis = test: Test Example 3: herbicidal effect by foliage application, Wagner pot (symbol D); type: in vivo; details: application herbicide amount 320 g/ha
# Summary of the method: as §1
smiles,measurement,setting,value
CON=C(C)CC1CC(O)=C(c2c(C)cc(C#N)cc2C)C1=O (stereo not drawn) [6-027],"effect on crop b (directly sowed rice plant), grade 0-5",[1],0 (Herbicidal ratio of 5% or lower (almost no effect))
same,"herbicidal effect on E, grade 0-5",Cyperus difformis,0 (Herbicidal ratio of 5% or lower (almost no effect))
same,"f: beet, effect on crop grade",beet,0 (Herbicidal ratio of 5% or lower (almost no effect))
same,"R: Veronica persica, herbicidal effect grade",Veronica persica,0 (Herbicidal ratio of 5% or lower (almost no effect))
same,"K: Lolium multiflorum Lam., herbicidal effect grade",Lolium multiflorum Lam.,0 (Herbicidal ratio of 5% or lower (almost no effect))
same,"N: Amaranthus retroflexus, herbicidal effect grade",Amaranthus retroflexus,0 (Herbicidal ratio of 5% or lower (almost no effect))
same,"H: Echinochloa crus-galli var. crus-galli, herbicidal effect grade",[2],4 (Herbicidal ratio of 70% or higher and lower than 90%)
same,"d: soybean, effect on crop grade",soybean,0 (Herbicidal ratio of 5% or lower (almost no effect))
same,"L: Apera spica-venti, herbicidal effect grade",Apera spica-venti,0 (Herbicidal ratio of 5% or lower (almost no effect))
same,"e: wheat, effect on crop grade",wheat,0 (Herbicidal ratio of 5% or lower (almost no effect))
same,"P: Stellaria media, herbicidal effect grade",Stellaria media,0 (Herbicidal ratio of 5% or lower (almost no effect))
same,"Q: Galium spurium, herbicidal effect grade",Galium spurium,0 (Herbicidal ratio of 5% or lower (almost no effect))
same,"b: directly sowed rice plant, effect on crop grade",rice plant,1 (Herbicidal ratio of 5% or higher and lower than 20%)
same,"c: corn, effect on crop grade",corn,1 (Herbicidal ratio of 5% or higher and lower than 20%)
same,"I: Avena fatua, herbicidal effect grade",Avena fatua,1 (Herbicidal ratio of 5% or higher and lower than 20%)
same,"F: Digitaria ciliaris, herbicidal effect grade",Digitaria ciliaris,3 (Herbicidal ratio of 40% or higher and lower than 70%)
same,"M: Abutilon theophrasti, herbicidal effect grade",Abutilon theophrasti,0 (Herbicidal ratio of 5% or lower (almost no effect))
same,melting point,,181 to 184 °C
same,"G: Setaria viridis, herbicidal effect grade",Setaria viridis,4 (Herbicidal ratio of 70% or higher and lower than 90%)
same,"g: rapeseed, effect on crop grade",rapeseed,0 (Herbicidal ratio of 5% or lower (almost no effect))
same,"O: Chenopodium album, herbicidal effect grade",Chenopodium album,0 (Herbicidal ratio of 5% or lower (almost no effect))
same,"J: Alopecurus myosuroides, herbicidal effect grade",Alopecurus myosuroides,0 (Herbicidal ratio of 5% or lower (almost no effect))
same,"herbicidal effect on H (Echinochloa crus-galli var. crus-galli), grade 0-5",[3],2 (Herbicidal ratio of 20% or higher and lower than 40%)
same,"herbicidal effect on D (Leptochloa chinensis), grade 0-5",Leptochloa chinensis,3 (Herbicidal ratio of 40% or higher and lower than 70%)
